Where “and” joins values, the source holds several entries; their conditions need not be identical. Equal values may be shown once. Inconclusive results and toxic doses are left out. Cut-off read from the data, not from the text of the source: active = T/C of 150% or more; inactive = T/C below 125%.
Test system: L1210 leukemia ip in BDF1 mice, survival T/C
Experiment: NCI In Vivo Anticancer Drug Screen. Data for tumor model L1210 Leukemia (intraperitoneal) in B6D2F1 (BDF1) mice
Conditions: endpoint: mean survival time, higher = longer survival
Method in brief: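 Antitumor effect is assessed in tumor-bearing animals. Survival in the compound arm is compared with a vehicle-dosed control arm and expressed as their quotient.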

[1] = dose: 100.0 mg/kg/injection, schedule: Q01DX001 (ip), vehicle: saline
[2] = dose: 200.0 mg/kg/injection, schedule: Q01DX001 (ip), vehicle: saline
[3] = dose: 50.0 mg/kg/injection, schedule: Q01DX009 (ip), vehicle: saline
[4] = dose: 50.0 mg/kg/injection, schedule: Q04DX003 (ip), vehicle: saline
[5] = dose: 100.0 mg/kg/injection, schedule: Q01DX001 (ip), vehicle: Klucel (hydroxypropylcellulose) (HPC)
[6] = dose: 200.0 mg/kg/injection, schedule: Q01DX001 (ip), vehicle: Klucel (hydroxypropylcellulose) (HPC)
[7] = dose: 100.0 mg/kg/injection, schedule: Q01DX009 (ip), vehicle: saline with Tween-80
[8] = dose: 200.0 mg/kg/injection, schedule: Q01DX009 (ip), vehicle: saline with Tween-80
[9] = dose: 400.0 mg/kg/injection, schedule: Q01DX009 (ip), vehicle: saline with Tween-80

Measured: T/C

O=C(O)CCC(=O)NNC(=O)Cc1c[nH]c2ccccc12
inactive: dose: 100.0 mg/kg/injection, schedule: Q01DX001 (ip), vehicle: other 106 % of control | dose: 100.0 mg/kg/injection, schedule: Q04DX003 (ip), vehicle: other 95 % of control | dose: 200.0 mg/kg/injection, schedule: Q01DX001 (ip), vehicle: other 106 % of control | dose: 200.0 mg/kg/injection, schedule: Q04DX003 (ip), vehicle: other 94 % of control | dose: 400.0 mg/kg/injection, schedule: Q01DX001 (ip), vehicle: other 97 % of control | dose: 400.0 mg/kg/injection, schedule: Q04DX003 (ip), vehicle: other 94 % of control

CCC(=O)N1CCN(C(=O)CC)c2ccccc21
inactive: dose: 50.0 mg/kg/injection, schedule: Q01DX001 (ip), vehicle: saline 98 % of control | [1] 104 % of control | [2] 104 % of control | dose: 400.0 mg/kg/injection, schedule: Q01DX001 (ip), vehicle: saline 101 % of control

CCOC(=O)C12CCC(C(=O)OCC)(CC1=O)C(=O)C2
inactive: dose: 100.0 mg/kg/injection, schedule: Q04DX002 (ip), vehicle: saline with Tween-80 88 % of control | dose: 200.0 mg/kg/injection, schedule: Q04DX002 (ip), vehicle: saline with Tween-80 95 % of control | dose: 400.0 mg/kg/injection, schedule: Q04DX002 (ip), vehicle: saline with Tween-80 98 % of control

COc1ccc2c3c(c4cc(OC)c(OC)cc4c2c1)C[C@H]1CCCCN1C3
inactive: dose: 0.06 mg/kg/injection, schedule: Q01DX Z (ip), vehicle: carboxymethylcellulose (CMC) 103 % of control | dose: 0.12 mg/kg/injection, schedule: Q01DX Z (ip), vehicle: carboxymethylcellulose (CMC) 108 % of control | dose: 0.25 mg/kg/injection, schedule: Q01DX Z (ip), vehicle: carboxymethylcellulose (CMC) 105 % of control | dose: 0.25 mg/kg/injection, schedule: Q01DX Z (ip), vehicle: other 116 % of control | dose: 0.5 mg/kg/injection, schedule: Q01DX Z (ip), vehicle: carboxymethylcellulose (CMC) 114 % of control and 124 % of control | dose: 0.5 mg/kg/injection, schedule: Q01DX Z (ip), vehicle: other 123 % of control | dose: 0.5 mg/kg/injection, schedule: Q01DX Z (ip), vehicle: saline 115 % of control | dose: 1.0 mg/kg/injection, schedule: Q01DX001 (ip), vehicle: saline 105 % of control | dose: 1.0 mg/kg/injection, schedule: Q01DX Z (ip), vehicle: carboxymethylcellulose (CMC) 122 % of control | dose: 1.0 mg/kg/injection, schedule: Q01DX Z (ip), vehicle: saline 115 % of control | dose: 2.0 mg/kg/injection, schedule: Q01DX001 (ip), vehicle: saline 105 % of control | dose: 2.0 mg/kg/injection, schedule: Q01DX Z (ip), vehicle: other 88 % of control | dose: 4.0 mg/kg/injection, schedule: Q01DX001 (ip), vehicle: saline 111 % of control

NC(=O)CC[n+]1ccccc1
inactive: dose: 12.5 mg/kg/injection, schedule: Q01DX009 (ip), vehicle: saline 97 % of control | dose: 25.0 mg/kg/injection, schedule: Q01DX009 (ip), vehicle: saline 93 % of control | [3] 96 % of control | [4] 105 % of control

NC(=O)c1cn[nH]c1NC(=O)/C=C/c1cccc([N+](=O)[O-])c1
inactive: dose: 50.0 mg/kg/injection, schedule: Q01DX001 (ip), vehicle: Klucel (hydroxypropylcellulose) (HPC) 92 % of control | [5] 96 % of control | [6] 91 % of control

FC(F)(F)S.[Hg]
inactive: dose: 5.0 mg/kg/injection, schedule: Q01DX009 (ip), vehicle: saline 86 % of control | dose: 10.0 mg/kg/injection, schedule: Q01DX009 (ip), vehicle: saline 93 % of control

CCC(Br)C(=O)O (centres undefined)
inactive: [3] 96 % of control and 97 % of control | [4] 95 % of control | [1] 92 % of control | dose: 100.0 mg/kg/injection, schedule: Q01DX009 (ip), vehicle: saline 89 % of control and 91 % of control | dose: 100.0 mg/kg/injection, schedule: Q04DX002 (ip), vehicle: saline 101 % of control | dose: 100.0 mg/kg/injection, schedule: Q04DX003 (ip), vehicle: saline 100 % of control | [2] 96 % of control | dose: 200.0 mg/kg/injection, schedule: Q04DX002 (ip), vehicle: saline 105 % of control | dose: 200.0 mg/kg/injection, schedule: Q04DX003 (ip), vehicle: saline 90 % of control

COc1ccc(-c2c(C)c(C)[nH]c(=O)c2C(=O)O)c(OCc2ccccc2)c1OC
inactive: [7] 100 % of control | [8] 100 % of control | [9] 97 % of control

COc1c(OC)c(C(C)C)c2c(c1C(=O)O)C(=O)OC2=O
inactive: [5] 103 % of control | dose: 100.0 mg/kg/injection, schedule: Q04DX003 (ip), vehicle: Klucel (hydroxypropylcellulose) (HPC) 96 % of control | [6] 103 % of control | dose: 200.0 mg/kg/injection, schedule: Q04DX003 (ip), vehicle: Klucel (hydroxypropylcellulose) (HPC) 88 % of control | dose: 400.0 mg/kg/injection, schedule: Q01DX001 (ip), vehicle: Klucel (hydroxypropylcellulose) (HPC) 100 % of control | dose: 400.0 mg/kg/injection, schedule: Q04DX003 (ip), vehicle: Klucel (hydroxypropylcellulose) (HPC) 89 % of control

Cc1cc(OC(=O)Nc2cccc(Cl)c2C)ccc1Cl
inactive: [7] 99 % of control | dose: 100.0 mg/kg/injection, schedule: Q04DX003 (ip), vehicle: saline with Tween-80 93 % of control | [8] 99 % of control | dose: 200.0 mg/kg/injection, schedule: Q04DX003 (ip), vehicle: saline with Tween-80 91 % of control | [9] 89 % of control | dose: 400.0 mg/kg/injection, schedule: Q04DX003 (ip), vehicle: saline with Tween-80 98 % of control

COC(=O)CC1CCS(=O)(=O)C1 (centres undefined)
inactive: [7] 101 % of control | [8] 103 % of control | [9] 95 % of control

CC(=O)N(C1=CC(=O)c2ccccc2C1=O)c1ccc(Cl)cc1
inactive: dose: 75.0 mg/kg/injection, schedule: Q01DX001 (ip), vehicle: carboxymethylcellulose (CMC) 98 % of control | dose: 150.0 mg/kg/injection, schedule: Q01DX001 (ip), vehicle: carboxymethylcellulose (CMC) 95 % of control | dose: 300.0 mg/kg/injection, schedule: Q01DX001 (ip), vehicle: carboxymethylcellulose (CMC) 97 % of control

O=C(Nc1ccc(F)cc1)Nc1cccc(Cl)c1
inactive: dose: 50.0 mg/kg/injection, schedule: Q01DX001 (ip), vehicle: carboxymethylcellulose (CMC) 101 % of control | dose: 100.0 mg/kg/injection, schedule: Q01DX001 (ip), vehicle: carboxymethylcellulose (CMC) 101 % of control | dose: 200.0 mg/kg/injection, schedule: Q01DX001 (ip), vehicle: carboxymethylcellulose (CMC) 93 % of control | dose: 400.0 mg/kg/injection, schedule: Q01DX001 (ip), vehicle: carboxymethylcellulose (CMC) 106 % of control
